Test results taken from patent US8324274B2, “Drug delivery system for administration of a water soluble, cationic and amphiphilic pharmaceutically active substance” (Ardenia Invesments, Ltd., priority 2007, dated 2012).
Structures can show the parent of a compound that is named as a salt. Where two headings read alike, the source gives them in different places.

How the values were obtained:
[1] = test system: Human Ovary Adenocarcinoma SKOV-3 Cell Line; assay: Cytotoxicity (cell growth inhibition, trypan blue exclusion count) in SKOV-3 cultures; details: for docetaxel-doxorubicin mixtures based on the sum of amounts of cytostatica
Experimental: MDA-MB-231 cells were propagated in MEM culture medium with 2 mM L-glutamine, 10% fetal bovine serum (FBS) and antibiotics. SKOV-3 cells were cultured in McCoy's 5A culture medium, supplemented with 1.5 mM L-glutamine, 10% FBS and antibiotics. […] Cell propagation of all lines was carried out in BD Falcon™ 25 or 75 cm^2 cultivation flasks (Becton Dickinson Labware). A549 cells were cultured in Ham's F-12 culture medium with 1 mM L-glutamine, 10% FBS and antibiotics. Cell propagation of all lines was carried out in BD Falcon™ 25 or 75 cm^2 cultivation flasks.
These plates were seeded by cells at 8×10^3 cells/well for MDA-MB-231, at 10×10^3 cells/well for SKOV-3 or at 6×10^3 cells/well for A549 in a volume of 200 μl/well. Both flasks and cultivation plates were incubated for cell growth at 37° C. in a humidified atmosphere of 95% air and 5% CO2.
On day 1 after cell seeding 4 μL solutions of the formulations to be tested with different concentrations in appropriate solvents were added to wells with cultures (dose—response experiments). […] The cells were incubated within 2-4 consecutive days.
EF was calculated versus ADRIAMYCIN®. IC50 for the docetaxel-doxorubicin mixtures is based on the sum of amounts of cytostatica.
(§1) IC50 were based on concentration of doxorubicin. Enhancement factors were calculated versus doxorubicin.

[2] = test system: Human Breast Adenocarcinoma MDA-MB-231 Cell Line; assay: cells
Experimental: (§2) For evaluation of cytotoxicity in vitro cells of different human tumour cell lines were purchased from American Type Culture Collection (Rockville, Md., USA): Human Breast Adenocarcinoma Cell Line MDA-MB-231 (ATCC-HTB-26, Lot 3576799), Human Ovary Adenocarcinoma Cell Line SKOV-3 (ATCC-HTB-77, Lot 3038337) and Human Lung Non-Small Cancer Cell Line A549 (ATCC-CCL-185, Lot 3244171). MDA-MB-231 cells were propagated in MEM culture medium with 2 mM L-glutamine, 10% fetal bovine serum (FBS) and antibiotics. SKOV-3 cells were cultured in McCoy's 5A culture medium, supplemented with 1.5 mM L-glutamine, 10% FBS and antibiotics. All media and supplements were purchased from Sigma-Aldrich Co. (St. Louis, Mi., USA). […]
(§3) The cell cultures in the cultivation plates were allowed to adhere for 24 hour of incubation. […] At the end of the incubation period adherent cells were detached by trypsinization and the number of viable cells was counted using trypan blue exclusion test and a hemocytometer. […] The results were expressed as mean cell number±SE and the differences between control and test series evaluated by means of Student's t-test. The drug cytotoxicity was evaluated based on the extent of cell growth inhibition.
as §1

[3] = test system: Human Lung Non-Small Cancer Cell Line A549; assay: Cytotoxicity (cell growth inhibition, trypan blue exclusion count) in A549 cultures; details: based on concentration of doxorubicin
Experimental: as §2, §3, §1

[4] = SK-OV-3, 72 h, SKOV-3, day 3, mean ± SE, read-out: IC50 day 3
[5] = SK-OV-3, 96 h, SKOV-3, day 4, mean ± SE, read-out: IC50 day 4

Row | SMILES | IC50 [1, 4] | IC50 [1, 5] | IC50 ([2]; MDA-MB-231, 72 h, read-out: IC50 day 3) | IC50 ([2]; MDA-MB-231, 96 h, read-out: IC50 day 4) | IC50 ([3]; 72 h, A549, day 3, mean ± SE, read-out: IC50 day 3) | IC50 ([3]; 96 h, A549, day 4, mean ± SE, read-out: IC50 day 4)
1 | COc1cccc2c1C(=O)c1c(O)c3c(c(O)c1C2=O)C[C@@](O)(C(=O)CO)C[C@@H]3O[C@H]1C[C@H](N)[C@H](O)[C@H](C)O1 [ADRIAMYCIN ®, doxorubicin hydrochloride] | 0.085 µM | 0.048 µM | 0.19 µM | 0.051 µM | 0.012 µM | 0.027 µM
2 | CC(=O)O[C@@]12CO[C@@H]1C[C@H](O)[C@@]1(C)C(=O)[C@H](O)C3=C(C)[C@@H](OC(=O)[C@H](O)[C@@H](NC(=O)OC(C)(C)C)c4ccccc4)C[C@@](O)([C@@H](OC(=O)c4ccccc4)[C@H]21)C3(C)C [Docetaxel, docetaxel] | 0.0907 µM | 0.0285 µM |  |  |  | 
